Some results are limits rather than exact numbers.

The record followed here is US6251893A, “Bicyclic piperidine and piperazine compounds having 5-HT6 receptor affinity” (NPS Allelix Corp., priority 1998, dated 2001).

For assay [1], the target named is T1, human 5HT6 receptor (Homo sapiens, UniProt P50406). As to the kind of experiment: Functional assay: reversal of serotonin-stimulated adenyl cyclase activity (cAMP) in HEK 293 cells stably expressing the human 5HT6 receptor. Type of assay: cell-based. Set-up: cAMP functional assay in whole cells. The following applies: 100 nM and 10 μM test compound with serotonin. The method, then:
The 5HT6 receptor responds to serotonin and other agonists by increasing adenyl cyclase mediated production of cyclic AMP. Particular test compounds were assayed for their effect on adenyl cyclase activity using the procedure described below.
Compounds acting as antagonists at the 5HT6 receptor will antagonize the agonist effect of serotonin and thus, will block the serotonin-inducedincrease in adenyl cyclase activity.
HEK 293 cells stably expressing the human 5HT6 receptor were plated in 6 well plates in DMEM (Dulbecco's Modified Eagle Medium)/F12 (Nutrient Mixture F12-Ham) media with 10% FCS (fetal calf serum) and G418 (Geneticen Disulfate, 500 ug/ml), and incubated at 37° C. in a CO2 incubator. The cells were allowed to grow to about 70% confluence before use in the assay.
The culture medium of each well was removed, and the wells were washed once with serum free media. Then 2 ml of SFM+IBMX medium (SFM with 0.5 mM IBMX, 3-isobutyl-1-methylxanthine, 0.1% ascorbic acid and 10 mM pargyline) was added to each well and the wells were incubated at 37° C. for 10 min. Following incubation, the SFM+IBMX medium was removed from each well and fresh SFM+IBMX media was added to the wells separately with one of a) serotonin (1 μM final concentration); b) test compound (100 nM and 10 μM, to test for agonist activity); and c) test compound (100 nM and 10 μM) along with serotonin ([…], to test for antagonist activity). Basal adenyl cyclase activity was determined from wells with only SFM+IBMX media added.
The cells were then incubated at 37° C. for 30 minutes in a CO2 incubator. Following incubation, the media were removed from each well. The wells were washed once with 1 ml of PBS (phosphate buffered saline). Each well was then treated with 1 mL cold 95% ethanol:5 mM EDTA (2:1) at 4° C. for 1 hour. The cells from each well were then scraped and transferred into individual Eppendorf tubes. The tubes were centrifuged for 5 minutes at 4° C., and the supernatants were transferred to new Eppendorf tubes and stored at 4° C. The pellets were discarded and the supernatants were stored at 4° C. until assayed for cAMP concentration. cAMP content for each extract was determined in duplicate by EIA (enzyme-immunoassay) using the Amersham Biotrak cAMP EIA kit (Amersham RPN 225). Final results were expressed as % basal response for agonists and % reversal of serotonin response for antagonists.
The total stimulation of adenyl cyclase by serotonin (So) was determined as the difference in concentration of cAMP in the serotonin-treated cells (Cd) and the basal-treated cells (Cf).
The net stimulation (S) of basal adenyl cyclase by an agonist test compound was determined as the difference in cAMP concentration in the drug-treatedcell (C) and the basal-treated cells (Cf).
The net stimulation (Ss) of basal adenyl cyclase by serotonin in the presence of an antagonist test compound was determined as the difference in cAMP concentration in the serontonin-drug-treated cells (Cs) and the basal-treated cells (Cf).
The ability of the antagonist test compound to reverse the serotonin stimuation of adenyl cyclase activity (% reversal, % R) was determined by the formula: […]

The target of a further assay is 5-HT7 receptor (Homo sapiens, UniProt P34969). As to the kind of experiment: Binding to 5-HT7 receptor (selectivity). Also on record: dose or concentration left out as unconfirmed. The following applies: selectivity versus 5-HT6; read-out: percent inhibition for the 5-HT7 receptor.
The target of another assay is T2, 5HT2C receptor (Homo sapiens, UniProt P28335).
T2 sequence (P28335 33-458): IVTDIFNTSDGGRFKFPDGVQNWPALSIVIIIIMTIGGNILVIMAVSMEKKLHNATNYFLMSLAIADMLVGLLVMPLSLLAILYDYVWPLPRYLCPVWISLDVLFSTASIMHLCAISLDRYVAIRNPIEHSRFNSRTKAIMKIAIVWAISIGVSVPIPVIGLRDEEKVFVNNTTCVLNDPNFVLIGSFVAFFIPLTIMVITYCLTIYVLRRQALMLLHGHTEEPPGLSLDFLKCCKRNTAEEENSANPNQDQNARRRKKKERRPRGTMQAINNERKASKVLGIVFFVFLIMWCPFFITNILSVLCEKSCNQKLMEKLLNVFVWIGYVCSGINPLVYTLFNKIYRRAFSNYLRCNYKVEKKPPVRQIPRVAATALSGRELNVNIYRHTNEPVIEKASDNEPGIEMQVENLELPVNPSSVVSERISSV
The experiment in a line: Binding to 5HT2C receptor (selectivity). As to conditions: selectivity versus 5-HT6; read-out: percent inhibition for the 5HT2C receptor.

Another assay deals with 5-HT2A receptor (Homo sapiens, UniProt P28223). As to the kind of experiment: Binding to 5-HT2A receptor (selectivity). Set-up: dose or concentration left out as unconfirmed. The following applies: selectivity versus 5-HT6; read-out: percent inhibition for the 5-HT2A receptor.
The target of assay [2] is T1, human 5HT6 receptor. The experiment in a line: Binding affinity for the 5-HT6 receptor (3H-LSD displacement). As to conditions: 100 nM test compound; 3H-LSD (2 nM); 60 minute incubation at 37° C; read-out: percent inhibition of radioligand binding for the 5-HT6 receptor. Set-up: expressed in transfected cells. How it is done: Binding Affinity for the 5-HT6 Receptor
The assay protocol generally entailed the incubation of membranes prepared from cells expressing the 5-HT6 receptor with ^3 H-LSD (2 nM). Increasing levels of the test compound were incubated with the radioligand and the membrane homogenates prepared from the recombinant cells. After a 60 minute incubation at 37° C., the incubation was terminated by vacuum filtration. The filters were washed with buffer and the filters were counted for radioactivity using liquid scintillation spectrometry. […] Concentrations ranging from 10^-11 M to 10^-5 M of the test compound were evaluated. […] Affinity for the 5-HT6 receptor is expressed as the amount (in percent) of binding of the radioligand that is inhibited in the presence of 100 nM of test compound. A greater percent inhibition indicates greater affinity for the 5-HT6 receptor.

5-HT2A receptor, sequence (P28223 whole entry): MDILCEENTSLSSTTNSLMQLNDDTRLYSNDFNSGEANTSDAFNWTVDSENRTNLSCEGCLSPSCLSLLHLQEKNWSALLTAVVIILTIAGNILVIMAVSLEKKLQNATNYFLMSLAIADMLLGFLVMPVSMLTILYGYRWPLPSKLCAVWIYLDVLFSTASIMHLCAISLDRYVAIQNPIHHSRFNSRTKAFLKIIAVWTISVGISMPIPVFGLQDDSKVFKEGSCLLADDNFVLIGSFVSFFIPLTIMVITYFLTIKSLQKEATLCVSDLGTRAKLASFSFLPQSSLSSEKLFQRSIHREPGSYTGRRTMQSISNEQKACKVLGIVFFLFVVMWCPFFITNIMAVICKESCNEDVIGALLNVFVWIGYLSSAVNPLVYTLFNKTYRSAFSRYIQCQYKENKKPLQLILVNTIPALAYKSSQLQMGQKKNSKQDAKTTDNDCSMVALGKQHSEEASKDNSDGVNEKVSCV
5-HT7 receptor, sequence (P34969 whole entry): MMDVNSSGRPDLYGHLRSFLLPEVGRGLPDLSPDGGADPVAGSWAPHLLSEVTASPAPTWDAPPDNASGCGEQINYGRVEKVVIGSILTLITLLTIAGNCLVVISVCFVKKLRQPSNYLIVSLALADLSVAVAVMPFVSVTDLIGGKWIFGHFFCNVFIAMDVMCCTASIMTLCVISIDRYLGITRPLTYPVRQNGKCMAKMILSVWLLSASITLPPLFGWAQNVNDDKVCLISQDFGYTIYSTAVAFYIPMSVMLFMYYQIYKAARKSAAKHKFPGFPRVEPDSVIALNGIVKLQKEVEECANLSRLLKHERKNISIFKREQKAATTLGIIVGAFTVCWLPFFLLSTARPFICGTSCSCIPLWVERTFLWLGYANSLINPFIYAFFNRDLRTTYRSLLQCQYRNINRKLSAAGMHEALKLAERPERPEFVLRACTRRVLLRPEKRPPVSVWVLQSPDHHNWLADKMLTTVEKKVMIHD
T1 sequence (P50406 whole entry): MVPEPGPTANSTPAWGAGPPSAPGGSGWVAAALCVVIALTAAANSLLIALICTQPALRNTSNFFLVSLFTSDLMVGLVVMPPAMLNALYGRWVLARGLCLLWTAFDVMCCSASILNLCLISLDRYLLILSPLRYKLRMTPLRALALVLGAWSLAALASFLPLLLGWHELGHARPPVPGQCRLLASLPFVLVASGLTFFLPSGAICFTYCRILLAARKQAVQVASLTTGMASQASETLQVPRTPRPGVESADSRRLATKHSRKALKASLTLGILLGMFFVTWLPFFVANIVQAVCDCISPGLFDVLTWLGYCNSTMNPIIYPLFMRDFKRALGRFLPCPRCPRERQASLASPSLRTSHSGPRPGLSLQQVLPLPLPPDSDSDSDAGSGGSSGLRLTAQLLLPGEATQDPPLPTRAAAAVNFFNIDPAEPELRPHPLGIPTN

`O=S(=O)(c1cccc2ccccc12)n1cc(N2CCN3CCCC3C2)c2ccccc21` (racemic) [Example 6b, 3-[(6-R,S)-1,4-Diaza[4.3. 0]bicyclonon-4-yl]-1-(1-naphthalenesulfonyl)indole]: the “reversal of serotonin stimulation of adenyl cyclase (5-HT6 receptor antagonism)” value (shortened to “reversal”) on human 5HT6 receptor [1] is recorded as “able to reverse the serotonin stimulation of adenyl cyclase”. Besides, the inhibition at 5-HT7 receptor and on 5-HT2A receptor was < 20% each time. For the same compound, the inhibition at 0.1 µM on 5HT2C receptor is < 20%; on human 5HT6 receptor [2] it was > 80%.
In the case of `O=S(=O)(c1ccccc1)n1cc(N2CCN3CCCC3C2)c2ccccc21` (racemic) [Example 6j, 3-[(6-R,S)-1,4-Diaza[4.3.0]bicyclonon-4-yl]-1-(phenylsulfonyl)indole], on human 5HT6 receptor [1], the “reversal” value is on record as “able to reverse the serotonin stimulation of adenyl cyclase”. In addition, the inhibition at 5-HT7 receptor and on 5-HT2A receptor was < 20% in each case. In addition, the inhibition at 0.1 µM at 5HT2C receptor is < 20%; at human 5HT6 receptor [2], > 80%.
In the case of `O=S(=O)(c1ccccc1)n1cc(C2=CCN3CCCC3C2)c2cc(F)ccc21` (racemic) [Example 6x, 5-Fluoro-3-[(8a-R,S)-1,2,3,5,8,8a-hexahydro-7-indolizinyl]-1-phenylsulfonylindole], the “reversal” value at human 5HT6 receptor [1] is “able to reverse the serotonin stimulation of adenyl cyclase”. The inhibition on 5-HT7 receptor and on 5-HT2A receptor was < 20% throughout. For the same compound, the inhibition at 0.1 µM on 5HT2C receptor was < 20%; on human 5HT6 receptor [2], > 80%.
Take `O=S(=O)(c1cccc2ccccc12)n1cc(C2=CCN3CCCC3C2)c2cc(F)ccc21` (racemic) [Example 6y, 5-Fluoro-3-[(8a-R,S)-1,2,3,5,8,8a-hexahydro-7-indolizinyl]-1-(1-naphthalenesulfonyl)indole]: the “reversal” value at human 5HT6 receptor [1] is “able to reverse the serotonin stimulation of adenyl cyclase”. The inhibition at 5-HT7 receptor and on 5-HT2A receptor was < 20% throughout. Also, the inhibition at 0.1 µM is < 20% on 5HT2C receptor and > 80% at human 5HT6 receptor [2].
`O=S(=O)(c1ccc2ccccc2c1)n1cc(C2CCN3CCCC3C2)c2cc(F)ccc21` (single isomer, unassigned; isomer i) [Example 10a, 5-Fluoro-3-[(7R or 7S)(8a-R,S)-octahydrohydro-7-indolizinyl]-1-(2-naphthalenesulfonyl)indole,Isomer I]: the “reversal” value at human 5HT6 receptor [1] is “able to reverse the serotonin stimulation of adenyl cyclase”. Further, the inhibition at 0.1 µM on human 5HT6 receptor [2] was > 80%.
Turning to `O=S(=O)(c1ccccc1)n1cc(C2CCN3CCCC3C2)c2cc(F)ccc21` (single isomer, unassigned; isomer i) [Example 10c, 5-Fluoro-3-[(7R or 7S)(8a-R,S)-octahydrohydro-7-indolizinyl]-1-phenylsulfonylindole, Isomer I], the “reversal” value at human 5HT6 receptor [1] was “able to reverse the serotonin stimulation of adenyl cyclase”. The inhibition at 0.1 µM on human 5HT6 receptor [2] was > 80%.
Taken in the same sequence, the figures for `O=S(=O)(c1cccc2ccccc12)n1cc(C2CCN3CCCC3C2)c2cc(F)ccc21` (single isomer, unassigned; isomer i) [Example 10e, 5-Fluoro-3-[(7R or 7S)(8a-R,S)-octahydrohydro-7-indolizinyl]-1-(1-napthalenesulfonyl)indole, Isomer I] were “able to reverse the serotonin stimulation of adenyl cyclase” and > 80%.
`O=S(=O)(c1ccc2ccccc2c1)n1cc(C2CCN3CCCC3C2)c2cc(F)ccc21` (single isomer, unassigned; isomer ii) [Example 10b, 5-Fluoro-3-[(7R or 7S)(8a-R,S)-octahydrohydro-7-indolizinyl]-1-(2-naphthalenesulfonyl)indole, Isomer II]: the “reversal” value at human 5HT6 receptor [1] was “able to reverse the serotonin stimulation of adenyl cyclase”. The inhibition at 5-HT7 receptor and on 5-HT2A receptor was < 20% throughout. Also, on 5HT2C receptor, the inhibition at 0.1 µM was < 20%.
`O=S(=O)(c1ccccc1)n1cc(C2CCN3CCCC3C2)c2cc(F)ccc21` (single isomer, unassigned; isomer ii) [Example 10d, 5-Fluoro-3-[(7R or 7S)(8a-R,S)-octahydrohydro-7-indolizinyl]-1-phenylsulfonylindole, Isomer II]: the “reversal” value at human 5HT6 receptor [1] is “able to reverse the serotonin stimulation of adenyl cyclase”.
In the case of `O=S(=O)(c1cccc2ccccc12)n1cc(C2CCN3CCCC3C2)c2cc(F)ccc21` (single isomer, unassigned; isomer ii) [Example 10f, 5-Fluoro-3-[(7R or 7S)(8a-R,S)-octahydrohydro-7-indolizinyl]-1-(1-naphthalenesulfonyl)indole,Isomer II], the “reversal” value at human 5HT6 receptor [1] is on record as “able to reverse the serotonin stimulation of adenyl cyclase”. The inhibition at 5-HT7 receptor and at 5-HT2A receptor was < 20% throughout. Also, the inhibition at 0.1 µM on 5HT2C receptor is < 20%.

As a reminder, the inhibition is the share of the control response that was lost under treatment.
